From ChEMBL document CHEMBL1201862, “PubChem BioAssay data set” (2004)
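All cell lines were grown in 96-well plates and treated with compound for 48 hours. GI50: concentration for 50% inhibition of growth.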 Calls of active or inactive are those of the source. Cut-off read from the data, not from the text of the source: active = GI50 up to about 1.1 µM and inactive = higher. Square brackets hold non-standard residues; d marks the D form. Peptide text beside a SMILES is read from it. Ac5c = NC1(C(=O)O)CCCC1

Key:
Assay in all cases: DTP human tumour cell line panel, 48 h
[1] = system: Malme-3M
[2] = system: IGROV-1
[3] = system: HOP-92
[4] = system: SF-539
[5] = system: SNB-75
[6] = system: HOP-62
[7] = system: U-251
[8] = system: HT-29
[9] = system: NCI-H23
[10] = system: OVCAR-8
[11] = system: 786-0
[12] = system: SN12C
[13] = system: K562
[14] = system: M14
[15] = system: UO-31
[16] = system: RPMI-8226
[17] = system: SK-MEL-28
[18] = system: MOLT-4
[19] = system: OVCAR-5
[20] = system: SF-295

Structure (SMILES)	GI50 [1]	GI50 [2]	GI50 [3]	GI50 [4]	GI50 [5]	GI50 [6]	GI50 [7]	GI50 [8]	GI50 [9]	GI50 [10]	GI50 [11]	GI50 [12]	GI50 [13]	GI50 [14]	GI50 [15]	GI50 [16]	GI50 [17]	GI50 [18]	GI50 [19]	GI50 [20]
CC(C)(c1ccccc1)c1ccc(Oc2ccc(C#N)c(C#N)c2)cc1	> 10 µM (inactive)	> 10 µM (inactive)	10.3 µM (inactive)	> 10 µM (inactive)	> 10 µM (inactive)	> 10 µM (inactive)	99.8 µM (inactive)	> 10 µM (inactive)	25 µM (inactive)	> 10 µM (inactive)	> 10 µM (inactive)	> 10 µM (inactive)	15 µM (inactive)	71.8 µM (inactive)	4.48 µM (inactive)	10.2 µM (inactive)	> 10 µM (inactive)	28.5 µM (inactive)	> 10 µM (inactive)	4.47 µM (inactive)
O=C1c2c(n(Cc3ccccc3)c(=O)n2Cc2ccccc2)C(=O)N1Cc1ccccc1	> 100 µM (inactive)	93.5 µM (inactive)	> 100 µM (inactive)	> 100 µM (inactive)	64.7 µM (inactive)	> 100 µM (inactive)	50.4 µM (inactive)	82.2 µM (inactive)	38.6 µM (inactive)	> 100 µM (inactive)	> 100 µM (inactive)	65.5 µM (inactive)	58.1 µM (inactive)	> 100 µM (inactive)	50.2 µM (inactive)	22.8 µM (inactive)	> 100 µM (inactive)	54.6 µM (inactive)	> 100 µM (inactive)	72.3 µM (inactive)
N/C(=N/O)c1cn(C2OC(CO)C(O)C2O)c2ncnc(NO)c12 (stereo not given)	0.0373 µM (active)	0.451 µM (active)	1.03 µM (active)	0.117 µM (active)	0.222 µM (active)	0.366 µM (active)	0.226 µM (active)	0.461 µM (active)	0.216 µM (active)	0.242 µM (active)	0.0556 µM (active)	0.0593 µM (active)	0.184 µM (active)	0.126 µM (active)	0.084 µM (active)	0.146 µM (active)	0.476 µM (active)	0.0871 µM (active)	0.656 µM (active)	0.773 µM (active)
NCC(=O)NC1(C(=O)O)CCCC1 (H-Gly-[Ac5c]-OH)	> 100 µM (inactive)	> 100 µM (inactive)	> 100 µM (inactive)	> 100 µM (inactive)	> 100 µM (inactive)	> 100 µM (inactive)	> 100 µM (inactive)	> 100 µM (inactive)	> 100 µM (inactive)	> 100 µM (inactive)	> 100 µM (inactive)	> 100 µM (inactive)	> 100 µM (inactive)	> 100 µM (inactive)	> 100 µM (inactive)	> 100 µM (inactive)	> 100 µM (inactive)	> 100 µM (inactive)	> 100 µM (inactive)	> 100 µM (inactive)
O=C1C(c2ccccc2)=C(c2ccccc2)C1(Cl)Cl	2.86 µM (inactive)	3.95 µM (inactive)	2.37 µM (inactive)	3.05 µM (inactive)	4.95 µM (inactive)	14.8 µM (inactive)	2.84 µM (inactive)	3.15 µM (inactive)	2.75 µM (inactive)	2.64 µM (inactive)	2.69 µM (inactive)	2.87 µM (inactive)	1.91 µM (inactive)	2.22 µM (inactive)	3.61 µM (inactive)	2.11 µM (inactive)	3.78 µM (inactive)	2.55 µM (inactive)	7.82 µM (inactive)	9.89 µM (inactive)
CSC(=N/C=C/c1ccccc1)SC	> 100 µM (inactive)	73.6 µM (inactive)	> 100 µM (inactive)	> 100 µM (inactive)	> 100 µM (inactive)	> 100 µM (inactive)	> 100 µM (inactive)	> 100 µM (inactive)	> 100 µM (inactive)	> 100 µM (inactive)	> 100 µM (inactive)	> 100 µM (inactive)	72.8 µM (inactive)	> 100 µM (inactive)	> 100 µM (inactive)	> 100 µM (inactive)	> 100 µM (inactive)	> 100 µM (inactive)	> 100 µM (inactive)	> 100 µM (inactive)
O=C1NC(=O)C(c2c[nH]c3cc(Br)ccc23)=C1c1cn(C(c2ccccc2)(c2ccccc2)c2ccccc2)cn1	19.5 µM (inactive)	12 µM (inactive)	13.9 µM (inactive)	14.8 µM (inactive)	11.5 µM (inactive)	24.7 µM (inactive)	10.7 µM (inactive)	9.48 µM (inactive)	11.3 µM (inactive)	14.6 µM (inactive)	8.85 µM (inactive)	15.5 µM (inactive)	6.3 µM (inactive)	13.2 µM (inactive)	14.8 µM (inactive)	10.1 µM (inactive)	27.2 µM (inactive)	4.41 µM (inactive)	17.5 µM (inactive)	18.1 µM (inactive)
CCCCCCCCCCCC1CC(=O)NCCCN(C)CCCCN(C)CCCN1C (stereo not given) [BUDMUNCHIAMINE A]	1.9 µM (inactive)	1.82 µM (inactive)	1.39 µM (inactive)	1.75 µM (inactive)	1.59 µM (inactive)	1.66 µM (inactive)	1.66 µM (inactive)	1.56 µM (inactive)	1.73 µM (inactive)	1.89 µM (inactive)	1.55 µM (inactive)	1.74 µM (inactive)	0.261 µM (active)	1.8 µM (inactive)	1.72 µM (inactive)	0.828 µM (active)	1.69 µM (inactive)	1.95 µM (inactive)	1.85 µM (inactive)	1.64 µM (inactive)
CCOC(=O)/C(C(N)=O)=C(O)/C(O)=C(\Br)C(=O)c1ccccc1	15.1 µM (inactive)	15.9 µM (inactive)	19.9 µM (inactive)	18.5 µM (inactive)	17.3 µM (inactive)	20.5 µM (inactive)	18.2 µM (inactive)	25.9 µM (inactive)	18.8 µM (inactive)	19.6 µM (inactive)	15.8 µM (inactive)	18.5 µM (inactive)	11.8 µM (inactive)	14.6 µM (inactive)	18.9 µM (inactive)	9.25 µM (inactive)	17.9 µM (inactive)	2.99 µM (inactive)	19.4 µM (inactive)	56.8 µM (inactive)
O=C(/C=C/c1ccccc1Cl)c1ccc(Cl)cc1Cl	18.9 µM (inactive)	14.5 µM (inactive)	21 µM (inactive)	23 µM (inactive)	18.7 µM (inactive)	23.2 µM (inactive)	12.9 µM (inactive)	14.3 µM (inactive)	19.2 µM (inactive)	15.7 µM (inactive)	16.6 µM (inactive)	17.9 µM (inactive)	3.02 µM (inactive)	18.1 µM (inactive)	21.7 µM (inactive)	9.55 µM (inactive)	11.6 µM (inactive)	3.91 µM (inactive)	17.1 µM (inactive)	19.3 µM (inactive)
C(=N\c1ccc(-c2nc3ccccc3[nH]2)cc1)/c1cccs1	> 100 µM (inactive)	19.8 µM (inactive)	17.7 µM (inactive)	> 100 µM (inactive)	81.1 µM (inactive)	> 100 µM (inactive)	89.7 µM (inactive)	> 100 µM (inactive)	> 100 µM (inactive)	49.9 µM (inactive)	> 100 µM (inactive)	> 100 µM (inactive)	81.7 µM (inactive)	> 100 µM (inactive)	31.2 µM (inactive)	52 µM (inactive)	> 100 µM (inactive)	29.9 µM (inactive)	> 100 µM (inactive)	75.7 µM (inactive)
CCOC(=O)NC(=O)c1cn(CCN2CCN(c3ncnc4[nH]cnc34)CC2)c(=O)[nH]c1=O	> 100 µM (inactive)	> 100 µM (inactive)	10.6 µM (inactive)	> 100 µM (inactive)	> 100 µM (inactive)	> 100 µM (inactive)	> 100 µM (inactive)	> 100 µM (inactive)	> 100 µM (inactive)	> 100 µM (inactive)	> 100 µM (inactive)	> 100 µM (inactive)	> 100 µM (inactive)	> 100 µM (inactive)	> 100 µM (inactive)	> 100 µM (inactive)	> 100 µM (inactive)	> 100 µM (inactive)	> 100 µM (inactive)	> 100 µM (inactive)
CCOC(=O)n1ccc2c(C(=O)OC)c(C(=O)OC)cc(/C(=C/C(=O)OC)C(=O)OC)c21	> 100 µM (inactive)	> 100 µM (inactive)	34.3 µM (inactive)	> 100 µM (inactive)	> 100 µM (inactive)	> 100 µM (inactive)	> 100 µM (inactive)	> 100 µM (inactive)	> 100 µM (inactive)	> 100 µM (inactive)	> 100 µM (inactive)	> 100 µM (inactive)	26.5 µM (inactive)	> 100 µM (inactive)	92.5 µM (inactive)	26.5 µM (inactive)	> 100 µM (inactive)	32.1 µM (inactive)	> 100 µM (inactive)	> 100 µM (inactive)
COC(CN(C(=O)c1ccccc1)C1CCC2(SCCS2)c2[nH]c3ccccc3c21)OC (stereo not given)	25.2 µM (inactive)	40.6 µM (inactive)	7.24 µM (inactive)	63.1 µM (inactive)	20.2 µM (inactive)	27.7 µM (inactive)	25.9 µM (inactive)	37.3 µM (inactive)	58.6 µM (inactive)	34.9 µM (inactive)	37 µM (inactive)	24.2 µM (inactive)	14.9 µM (inactive)	30.7 µM (inactive)	16 µM (inactive)	29.6 µM (inactive)	61.2 µM (inactive)	14.6 µM (inactive)	33.7 µM (inactive)	3.01 µM (inactive)
